# Measured values published in US20130303533A1, “AZOLOPYRIDINE AND AZOLOPYRIMIDINE COMPOUNDS AND METHODS OF USE THEREOF” (AMBIT BIOSCIENCES CORPORATION, priority 2010, published 2013).
# Experiments:
# [1] = biological target: T1, TYK2 (Homo sapiens, UniProt P29597); experiment: Competition binding assay to determine binding constants (Kd), TYK2
# T1 construct: made in house; host or cells: T7 phage display or HEK-293 cells (alternatives)
# Description: (§1) Competition Binding Assay to Determine Binding Constants (Kd) of the Compounds Against JAK Kinases
# (§2) Competition binding assays used herein were developed, validated and performed as described in Fabian et al., Nature Biotechnology 2005, 23, 329-336. Kinases were produced as fusions to T7 phage (See, Fabian et al. or WO04/015142) or alternatively, the kinases were expressed in HEK-293 cells and subsequently tagged with DNA for PCR detection (See, WO08/005,310). For the binding assays, streptavidin-coated magnetic beads were treated with biotinylated affinity ligands for 30 min at rt to generate affinity resins. The liganded beads were blocked with excess biotin and washed with blocking buffer (SeaBlock (Pierce), 1% BSA, 0.05% Tween 20, 1 mM DTT) to remove unbound ligand and to reduce non-specific binding. Binding reactions were assembled by combining kinase, liganded affinity beads, and test compounds in 1× binding buffer (20% SeaBlock, 0.17×PBS, 0.05% Tween 20, 6 mM DTT). Test compounds were prepared as 100× stocks in DMSO and rapidly diluted into the aqueous environment. DMSO was added to control assays lacking a test compound. Primary screen interactions were performed in polypropylene 384-well plates in a final volume of 34 μL, while Kd determinations were performed in polystyrene 96-well plates in a final volume of 135 μL. The assay plates were incubated at room temperature with shaking for 1 hour, long enough for binding reactions to reach equilibrium, and the affinity beads were washed extensively with wash buffer (1×PBS, 0.05% Tween 20) to remove unbound protein. The beads were then resuspended in elution buffer (1×PBS, 0.05% Tween 20, 2 μM non-biotinylated affinity ligand) and incubated at room temperature with shaking for 30 min. The kinase concentration in the eluates was measured by quantitative PCR. Each kinase was tested individually against each compound. Kds were determined using eleven serial threefold dilutions. A selectivity score, which is a quantitative measure of selectivity of a compound against a panel of enzymes, may be calculated for a compound by dividing the number of enzymes for which a compound meets a set criteria, (for example, a binding constant of 100 nM or less), by the total number of enzymes tested.
# [2] = biological target: T2, JAK2 (Homo sapiens, UniProt O60674); experiment: Competition binding assay to determine binding constants (Kd), JAK2
# T2 construct: made in house; host or cells: T7 phage display or HEK-293 cells (alternatives)
# T2 sequence (O60674 whole entry): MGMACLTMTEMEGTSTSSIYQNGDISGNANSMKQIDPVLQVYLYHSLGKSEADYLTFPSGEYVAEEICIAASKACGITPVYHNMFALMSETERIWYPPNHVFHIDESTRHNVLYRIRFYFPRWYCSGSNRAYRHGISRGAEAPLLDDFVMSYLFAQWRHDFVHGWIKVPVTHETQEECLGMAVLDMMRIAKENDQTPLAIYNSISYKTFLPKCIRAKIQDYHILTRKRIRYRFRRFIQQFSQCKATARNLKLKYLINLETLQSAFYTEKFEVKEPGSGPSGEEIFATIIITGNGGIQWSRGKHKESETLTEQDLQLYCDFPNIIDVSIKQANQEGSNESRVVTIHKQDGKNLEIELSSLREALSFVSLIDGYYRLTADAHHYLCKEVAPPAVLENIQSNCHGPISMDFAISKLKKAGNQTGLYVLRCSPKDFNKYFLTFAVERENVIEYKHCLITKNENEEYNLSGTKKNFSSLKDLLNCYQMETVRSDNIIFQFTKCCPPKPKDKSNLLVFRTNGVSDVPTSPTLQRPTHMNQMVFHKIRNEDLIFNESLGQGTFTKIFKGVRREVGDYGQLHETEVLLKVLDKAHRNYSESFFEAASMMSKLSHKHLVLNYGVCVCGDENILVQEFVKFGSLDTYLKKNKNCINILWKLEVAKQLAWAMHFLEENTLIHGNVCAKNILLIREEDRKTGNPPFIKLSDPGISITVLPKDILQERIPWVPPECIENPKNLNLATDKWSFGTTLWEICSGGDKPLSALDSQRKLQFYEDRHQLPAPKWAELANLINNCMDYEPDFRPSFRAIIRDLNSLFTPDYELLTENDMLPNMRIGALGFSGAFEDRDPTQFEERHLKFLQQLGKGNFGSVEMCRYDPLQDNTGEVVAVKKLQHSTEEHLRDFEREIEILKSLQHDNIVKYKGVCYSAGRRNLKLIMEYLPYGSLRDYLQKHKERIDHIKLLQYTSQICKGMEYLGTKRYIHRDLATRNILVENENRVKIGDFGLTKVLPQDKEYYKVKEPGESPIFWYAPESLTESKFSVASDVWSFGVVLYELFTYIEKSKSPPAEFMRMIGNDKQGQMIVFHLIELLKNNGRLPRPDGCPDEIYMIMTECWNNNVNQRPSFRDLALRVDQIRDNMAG
# Description: as §1, §2
# [3] = biological target: T3, JAK3 (Homo sapiens, UniProt P52333); experiment: Competition binding assay to determine binding constants (Kd), JAK3
# T3 construct: made in house; host or cells: T7 phage display or HEK-293 cells (alternatives)
# T3 sequence (P52333 1-1124): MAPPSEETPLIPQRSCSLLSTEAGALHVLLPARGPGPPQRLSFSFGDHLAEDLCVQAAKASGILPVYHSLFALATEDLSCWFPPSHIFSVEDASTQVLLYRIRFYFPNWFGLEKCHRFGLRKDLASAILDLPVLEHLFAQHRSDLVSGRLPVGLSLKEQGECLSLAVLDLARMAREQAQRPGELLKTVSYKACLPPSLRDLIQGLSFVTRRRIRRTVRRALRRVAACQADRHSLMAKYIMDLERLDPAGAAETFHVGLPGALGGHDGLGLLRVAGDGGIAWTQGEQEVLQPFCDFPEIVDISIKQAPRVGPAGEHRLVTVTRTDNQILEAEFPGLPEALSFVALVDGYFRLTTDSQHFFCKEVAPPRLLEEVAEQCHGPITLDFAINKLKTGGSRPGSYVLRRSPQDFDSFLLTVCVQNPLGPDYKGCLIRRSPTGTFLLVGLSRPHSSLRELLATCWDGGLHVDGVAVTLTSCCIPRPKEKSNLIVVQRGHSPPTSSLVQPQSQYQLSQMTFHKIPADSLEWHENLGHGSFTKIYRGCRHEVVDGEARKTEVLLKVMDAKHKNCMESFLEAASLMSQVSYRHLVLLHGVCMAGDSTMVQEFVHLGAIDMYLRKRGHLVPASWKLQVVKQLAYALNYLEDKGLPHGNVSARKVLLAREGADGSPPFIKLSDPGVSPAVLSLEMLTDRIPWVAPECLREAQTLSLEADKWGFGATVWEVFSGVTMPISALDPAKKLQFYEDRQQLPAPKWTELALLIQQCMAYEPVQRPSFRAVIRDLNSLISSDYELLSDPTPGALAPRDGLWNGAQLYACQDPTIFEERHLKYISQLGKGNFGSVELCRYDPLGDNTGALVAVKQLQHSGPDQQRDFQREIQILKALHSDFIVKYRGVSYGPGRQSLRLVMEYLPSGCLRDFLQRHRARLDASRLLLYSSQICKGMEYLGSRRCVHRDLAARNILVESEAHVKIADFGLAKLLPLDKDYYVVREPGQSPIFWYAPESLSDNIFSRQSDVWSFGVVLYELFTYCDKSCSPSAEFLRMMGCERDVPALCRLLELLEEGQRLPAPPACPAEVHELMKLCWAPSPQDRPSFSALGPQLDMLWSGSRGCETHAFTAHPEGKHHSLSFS
# Description: as §1, §2
# [4] = system: GM-CSFR/JAK2/STAT5 pathway; experiment: CSTF-1 cell-based reporter assay; settings: Homo sapiens; csTF-1 cells, GM-CSF at 2 ng/mL, 4 hours, beta-lactamase reporter; read-out: Cell Assay: CS TF-1 reporter assay IC50
# Experimental: CSTF-1 Cell-Based Reporter Assay
# CSTF-1 cells are derived from the human erythroleukemia cell line that is growth dependent on GM-CSF and has an intact GM-CSFR/JAK2/STAT5 pathway. The cell line contains stably integrated beta-lactamase reporter gene under the control of the […] (irf 1) response element recognized by the activated transcription factor STAT5. csTF-1 cells (Invitrogen K1219) were washed with assay media (97% OPTIMEM/0.5% dialyzed FBS/0.1 mM NEAA/1 mM Na pyr/P/S) and seeded in the same media at 5×10^5 cell/mL in T150 flask. After 16 hour incubation, cells were seeded at 2×10^5 cell/well in 50 μl volume, into Costar, clear bottom, 96-well assay plates. Serial dilutions of compounds were added to the plates with final DMSO concentration at 0.5% and GM-CSF at 2 ng/mL and the plates were then incubated at 30° C. and 5% CO2 for 4 hours. The plates were brought to room temperature before adding Substrate Mixture according to manufacturer's protocol (Invitrogen, Catalog #K1085). The assay plates containing the substrate mixture were incubated in the dark at room temperature for 2 hours. Blue and green fluorescence was measured with excitation at 409 nm and emission at 460 nm (for blue) and excitation at 409 nm and emission at 530 nm (for green) using Spectra Max Gemini EM.
# T1 sequence (P29597 whole entry): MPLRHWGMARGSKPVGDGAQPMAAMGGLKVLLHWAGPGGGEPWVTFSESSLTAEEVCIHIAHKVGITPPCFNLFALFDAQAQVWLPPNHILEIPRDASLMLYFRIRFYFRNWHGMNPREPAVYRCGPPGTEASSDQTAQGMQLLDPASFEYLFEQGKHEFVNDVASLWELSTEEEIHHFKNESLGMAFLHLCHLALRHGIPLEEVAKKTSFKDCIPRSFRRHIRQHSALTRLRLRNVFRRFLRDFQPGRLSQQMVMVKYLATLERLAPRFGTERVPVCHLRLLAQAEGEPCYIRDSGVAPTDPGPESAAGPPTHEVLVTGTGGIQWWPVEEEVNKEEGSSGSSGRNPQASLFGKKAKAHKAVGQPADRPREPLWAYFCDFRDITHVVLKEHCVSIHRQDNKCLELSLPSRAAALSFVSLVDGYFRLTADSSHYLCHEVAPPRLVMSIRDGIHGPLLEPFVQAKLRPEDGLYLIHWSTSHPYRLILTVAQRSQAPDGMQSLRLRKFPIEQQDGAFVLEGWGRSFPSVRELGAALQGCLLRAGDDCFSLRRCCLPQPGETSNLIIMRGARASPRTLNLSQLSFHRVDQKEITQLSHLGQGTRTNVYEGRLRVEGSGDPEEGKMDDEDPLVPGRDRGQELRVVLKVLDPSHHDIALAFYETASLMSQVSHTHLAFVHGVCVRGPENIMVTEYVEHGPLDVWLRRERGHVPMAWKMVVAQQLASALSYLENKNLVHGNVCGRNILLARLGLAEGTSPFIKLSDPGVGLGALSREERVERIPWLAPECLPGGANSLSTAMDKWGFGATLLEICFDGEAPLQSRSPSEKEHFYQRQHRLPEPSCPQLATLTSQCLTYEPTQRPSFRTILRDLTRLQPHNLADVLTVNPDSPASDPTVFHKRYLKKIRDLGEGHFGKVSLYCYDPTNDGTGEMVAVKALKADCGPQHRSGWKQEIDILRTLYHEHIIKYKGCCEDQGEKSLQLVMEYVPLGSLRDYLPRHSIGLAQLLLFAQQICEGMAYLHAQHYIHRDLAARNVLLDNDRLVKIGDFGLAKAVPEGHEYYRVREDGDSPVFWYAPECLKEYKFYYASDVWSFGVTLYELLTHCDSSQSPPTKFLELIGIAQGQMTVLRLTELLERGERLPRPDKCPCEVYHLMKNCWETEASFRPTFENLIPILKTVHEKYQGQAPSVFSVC
SMILES,Kd [1] [nM],Kd [2] [nM],Kd [3] [nM],IC50 [4] [nM]
"COCCn1ccc2c(Nc3cc(C)[nH]n3)nc(S(=O)(=O)c3ccc(F)cc3)nc21 [Example 11, 2-(4-fluorophenylsulfonyl)-7-(2-methoxyethyl)-N-(5-methyl-1H-pyrazol-3-yl)-7H-pyrrolo[2,3-d]pyrimidin-4-amine]",≤ 10,≤ 1,≤ 10,≤ 100
"Cc1cc(Nc2nc(C(F)(F)c3ccc(F)cc3)nc3nc(C#N)sc23)n[nH]1 [Example 40, 5-(difluoro(4-fluorophenyl)methyl)-7-(5-methyl-1H-pyrazol-3-ylamino)thiazolo[4,5-d]pyrimidine-2-carbonitrile]",≤ 10,1 to 10,10 to 100,> 500
"Cc1cc(Nc2nc(S(=O)(=O)c3ccc(F)cc3)nc3[nH]ncc23)n[nH]1 [Example 27, 6-(4-fluorophenylsulfonyl)-N-(5-methyl-1H-pyrazol-3-yl)-1H-pyrazolo[3,4-d]pyrimidin-4-amine]",≤ 10,≤ 1,10 to 100,100 to 500
"CCn1ncc2c(Nc3cc(C)[nH]n3)nc(S(=O)(=O)c3ccc(F)cc3)nc21 [Example 24, 1-ethyl-6-(4-fluorophenylsulfonyl)-N-(5-methyl-1H-pyrazol-3-yl)-1H-pyrazolo[3,4-d]pyrimidin-4-amine]",≤ 10,≤ 1,10 to 100,≤ 100
"Cn1ccc2c(Nc3cc[nH]n3)nc(S(=O)(=O)c3ccc(F)cc3)nc21 [Example 6, 2-(4-fluorophenylsulfonyl)-7-methyl-N-(1H-pyrazol-3-yl)-7H-pyrrolo[2,3-d]pyrimidin-4-amine]",≤ 10,≤ 1,≤ 10,≤ 100
"Cc1cc(Nc2nc(S(=O)(=O)c3ccc(F)cc3)nc3c2ccn3CCS(C)(=O)=O)n[nH]1 [Example 17, 2-(4-fluorophenylsulfonyl)-N-(5-methyl-1H-pyrazol-3-yl)-7-(2-(methylsulfonyl)ethyl)-7H-pyrrolo[2,3-d]pyrimidin-4-amine]",≤ 10,≤ 1,≤ 10,100 to 500

# Next, values leading:
Kd [1] [nM],Kd [2] [nM],Kd [3] [nM],IC50 [4] [nM],SMILES
≤ 10,≤ 1,≤ 10,100 to 500,"Cc1cc(Nc2nc(C(F)(F)c3ccc(F)cc3)nc3nc(N4CCOCC4)sc23)n[nH]1 [Example 37, 5-(difluoro(4-fluorophenyl)methyl)-N-(5-methyl-1H-pyrazol-3-yl)-2-morpholinothiazolo[4,5-d]pyrimidin-7-amine]"
≤ 10,≤ 1,10 to 100,100 to 500,"Cc1cc(Nc2nc(C(F)(F)c3ccc(F)cn3)nc3c2cnn3C)n[nH]1 [Example 34, 6-(difluoro(5-fluoropyridin-2-yl)methyl)-1-methyl-N-(5-methyl-1H-pyrazol-3-yl)-1H-pyrazolo[3,4-d]pyrimidin-4-amine]"
≤ 10,≤ 1,≤ 10,≤ 100,"Cc1cc(Nc2nc(S(=O)(=O)c3ccc(F)cc3)nc3c2ccn3C)n[nH]1 [Example 9, 2-(4-fluorophenylsulfonyl)-7-methyl-N-(5-methyl-1H-pyrazol-3-yl)-7H-pyrrolo[2,3-d]pyrimidin-4-amine]"
≤ 10,≤ 1,≤ 10,100 to 500,"CS(=O)(=O)CCn1ccc2c(Nc3cc[nH]n3)nc(S(=O)(=O)c3ccc(F)cc3)nc21 [Example 18, 2-(4-fluorophenylsulfonyl)-7-(2-(methylsulfonyl)ethyl)-N-(1H-pyrazol-3-yl)-7H-pyrrolo[2,3-d]pyrimidin-4-amine]"
≤ 10,≤ 1,≤ 10,≤ 100,"Cc1cc(Nc2nc(S(=O)(=O)c3ccc(F)cc3)nc3c2ccn3CCO)n[nH]1 [Example 13, 2-(2-(4-fluorophenylsulfonyl)-4-(5-methyl-1H-pyrazol-3-ylamino)-7H-pyrrolo[2,3-d]pyrimidin-7-yl)ethanol]"
≤ 10,≤ 1,≤ 10,≤ 100,"Cc1cc(Nc2nc([S+]([O-])c3ccc(F)cc3)nc3[nH]ccc23)n[nH]1 (racemic) [Example 2, (R,S)-2-(4-fluorophenylsulfinyl)-N-(5-methyl-1H-pyrazol-3-yl)-7H-pyrrolo[2,3-d]pyrimidin-4-amine]"
